From ChEMBL document CHEMBL1201862, “PubChem BioAssay data set” (2004)
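Five compound concentrations were applied to cells in 96-well plates for 48 hours; endpoints were derived by simple linear interpolation of the resulting dose-response curve. Here, GI50 denotes the concentration required for 50% inhibition of growth.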 Activity calls are given as the source filed them. Cut-off read from the data, not from the text of the source: active = GI50 up to about 1.1 µM and inactive = higher.

Key:
Experiment in all cases: NCI-60 cell line screen, 48 h
[1] = system: DLD-1
[2] = system: DMS-273
[3] = system: LXFL 529
[4] = system: M19-MEL
[5] = system: RXF 631
[6] = system: SNB-78
[7] = system: XF498
[8] = system: DMS-114
[9] = system: HOP-18

SMILES | GI50 [1] | GI50 [2] | GI50 [3] | GI50 [4] | GI50 [5] | GI50 [6] | GI50 [7] | GI50 [8] | GI50 [9]
CCOc1ccc(NC(=O)C(=O)CC(=O)c2sc(NNC(C)=O)nc2C)cc1 | > 100 µM (inactive) | > 100 µM (inactive) | > 100 µM (inactive) | > 100 µM (inactive) | > 100 µM (inactive) | > 100 µM (inactive) | > 100 µM (inactive) | – | –
C/C(=N/NC(N)=S)c1ccc2ccccc2c1 | 21.2 µM (inactive) | 24.9 µM (inactive) | 22.3 µM (inactive) | 9.79 µM (inactive) | – | 45.5 µM (inactive) | 82.2 µM (inactive) | 17.9 µM (inactive) | –
CCc1cccc(C(C)C)c1N1C(=O)C(=O)C(c2nc3ccccc3s2)C(=O)C1=O | 20.5 µM (inactive) | > 45.3 µM (inactive) | 28.9 µM (inactive) | 39.1 µM (inactive) | – | > 50 µM (inactive) | > 50 µM (inactive) | 29.6 µM (inactive) | > 50 µM (inactive)
O=C(Nc1ccc(Sc2ccc(/N=N/c3c(O)c(S(=O)(=O)O)cc4cc(S(=O)(=O)O)ccc34)cc2)cc1)c1ccc(/N=N/c2c(O)c(S(=O)(=O)O)cc3cc(S(=O)(=O)O)ccc23)cc1 | 51.1 µM (inactive) | 15.1 µM (inactive) | 18.1 µM (inactive) | 19.5 µM (inactive) | – | 25.8 µM (inactive) | 36.4 µM (inactive) | 5.42 µM (inactive) | 23 µM (inactive)
O=C1CSC(/C(=C\c2ccc(Cl)cc2)c2nc3ccccc3[nH]2)=N1 | 16.3 µM (inactive) | 21 µM (inactive) | 20.8 µM (inactive) | 15.2 µM (inactive) | – | 41.3 µM (inactive) | 1.36 µM (inactive) | – | –
O=C(N/C(=C\c1ccc(/C=C(\NC(=O)c2ccccc2)c2nc3cc([N+](=O)[O-])ccc3[nH]2)cc1)c1nc2cc([N+](=O)[O-])ccc2[nH]1)c1ccccc1 | 43.8 µM (inactive) | 51.6 µM (inactive) | 28.4 µM (inactive) | 52.4 µM (inactive) | 34.5 µM (inactive) | > 100 µM (inactive) | – | 18.8 µM (inactive) | > 100 µM (inactive)
CSc1nsc(-c2ccccc2)[s+]1.[O-][Cl+3]([O-])([O-])[O-] | > 100 µM (inactive) | > 100 µM (inactive) | – | > 100 µM (inactive) | > 100 µM (inactive) | > 100 µM (inactive) | – | – | > 100 µM (inactive)
CC(=O)OCc1nnn2c1CCC2 | > 100 µM (inactive) | – | > 100 µM (inactive) | > 100 µM (inactive) | – | > 100 µM (inactive) | > 100 µM (inactive) | – | > 100 µM (inactive)
COc1ccc(/C(C#N)=C2/O/C(=N/N)C(c3ccc(OC)c(OC)c3)C2=O)cc1OC (centres undefined) | > 100 µM (inactive) | > 100 µM (inactive) | > 100 µM (inactive) | > 100 µM (inactive) | – | > 100 µM (inactive) | > 100 µM (inactive) | – | –
Cc1ccc(NCCO)cc1 | > 100 µM (inactive) | – | > 100 µM (inactive) | – | – | > 100 µM (inactive) | > 100 µM (inactive) | 61.7 µM (inactive) | –
Oc1ccc(C2Oc3cc(O)cc4c3C2c2cc(O)cc3c2C(c2cc(O)cc5c2C4C(c2ccc(O)cc2)O5)C(c2ccc(O)cc2)O3)cc1 (centres undefined) | > 25 µM (inactive) | 8.07 µM (inactive) | 5.41 µM (inactive) | 10.4 µM (inactive) | – | – | 5.51 µM (inactive) | 7.11 µM (inactive) | –
COC(=O)C(Cc1cc(OC)c(OC)c(OC)c1)C(=O)OC | > 320 µM (inactive) | > 320 µM (inactive) | > 320 µM (inactive) | > 320 µM (inactive) | > 320 µM (inactive) | – | > 320 µM (inactive) | > 320 µM (inactive) | –
c1ccc2c(c1)nnn1c3cnccc3nc21 | 27.5 µM (inactive) | 15.9 µM (inactive) | 31.8 µM (inactive) | 65.9 µM (inactive) | – | 25.5 µM (inactive) | – | 20.2 µM (inactive) | 53.5 µM (inactive)
COc1ccc(-c2cc3[nH]nc(N)c3c(=O)o2)cc1 | > 100 µM (inactive) | > 100 µM (inactive) | > 100 µM (inactive) | – | – | > 100 µM (inactive) | > 100 µM (inactive) | 72.4 µM (inactive) | > 100 µM (inactive)
COc1cccc(NC(=O)/C(CC(=O)CC(c2ccccc2)c2c(O)c3ccccc3oc2=O)=N\NC(C)(C)C)c1OC (centres undefined) | 40.6 µM (inactive) | – | 41.3 µM (inactive) | > 100 µM (inactive) | – | > 100 µM (inactive) | – | 22.8 µM (inactive) | –
COC(=O)CC1(O)C(=O)OCc2c1cc1n(c2=O)Cc2c-1nc1ccccc1c2OC (centres undefined) | 27.4 µM (inactive) | 0.042 µM (active) | 23.2 µM (inactive) | 1.19 µM (inactive) | 1.63 µM (inactive) | 26 µM (inactive) | 13.3 µM (inactive) | 0.164 µM (active) | 0.522 µM (active)
Cc1cc(N(CCC#N)CCC#N)ccc1/C=C1N=C(/C=C\c2ccccc2)OC\1=O | > 100 µM (inactive) | > 100 µM (inactive) | > 100 µM (inactive) | > 100 µM (inactive) | – | > 100 µM (inactive) | > 100 µM (inactive) | > 100 µM (inactive) | > 100 µM (inactive)
CCOC(=O)/C=C1\Nc2ccccc2C(c2ccccc2)=NC1OC(C)=O (centres undefined) | > 100 µM (inactive) | > 100 µM (inactive) | > 100 µM (inactive) | > 100 µM (inactive) | – | > 100 µM (inactive) | – | > 100 µM (inactive) | –
O=C(Cc1nc2ccc([N+](=O)[O-])cc2nc1O)C(=O)Nc1ccccc1[N+](=O)[O-] | > 100 µM (inactive) | > 100 µM (inactive) | > 100 µM (inactive) | > 100 µM (inactive) | – | – | – | 39.5 µM (inactive) | –
COc1ccc2nc3cc(Cl)ccc3c(Nc3ccccc3-c3ccccc3Nc3c4ccc(Cl)cc4nc4ccc(OC)cc34)c2c1 | – | 20.4 µM (inactive) | 17.1 µM (inactive) | > 34.7 µM (inactive) | > 34.8 µM (inactive) | > 100 µM (inactive) | > 39.4 µM (inactive) | – | > 100 µM (inactive)
O=C(N/C(=C\c1cc(Cl)ccc1Cl)c1nc2c(O)nc(S)nc2[nH]1)c1ccccc1 | 15.2 µM (inactive) | – | 15.6 µM (inactive) | 27 µM (inactive) | 20.4 µM (inactive) | 55.3 µM (inactive) | > 48.6 µM (inactive) | 25.2 µM (inactive) | –
COC(=O)c1cc(Cl)ccc1NC(=O)c1ccc([N+](=O)[O-])cc1 | 38.8 µM (inactive) | 21.6 µM (inactive) | 25.8 µM (inactive) | 40.7 µM (inactive) | 17.6 µM (inactive) | 32.6 µM (inactive) | 14.4 µM (inactive) | 33.5 µM (inactive) | –
COC1OC2=CCC3C(=O)NC(=O)C3C2[C@H](OCc2ccccc2)C1OCc1ccccc1 (some centres undefined) | 1.97 µM (inactive) | – | 1.68 µM (inactive) | – | – | 2.03 µM (inactive) | – | – | 3.48 µM (inactive)
C=C(C)C(=O)OC1CCC2(C)C(CCC3C2CCC2(C)C(c4ccc(=O)oc4)CC4OC432)C1 (centres undefined) | 2.18 µM (inactive) | 3.31 µM (inactive) | – | 3.91 µM (inactive) | – | 5.47 µM (inactive) | 5.15 µM (inactive) | 2.43 µM (inactive) | 13.3 µM (inactive)
Clc1ccc(C(c2ccccc2Cl)C(Cl)Cl)cc1 (centres undefined) [MITOTANE] | 19.5 µM (inactive) | 18.5 µM (inactive) | 20.9 µM (inactive) | 19.7 µM (inactive) | 17.9 µM (inactive) | 20.7 µM (inactive) | 15.7 µM (inactive) | 18.5 µM (inactive) | 12.5 µM (inactive)
